The values that follow are results of earlier work, collected in patent publication US20240239832A1, “A PROCESS FOR THE PREPARATION OF N4-HYDROXYCYTIDINE AND ITS DERIVATIVES” (priority 2021, published 2024).

One may read the pIC50 as −log10 of the IC50, conventionally taken in molar units. The pEC50 is the negative decadic logarithm of the EC50, by convention in mol/L.

The test system of data set [1] is acute respiratory syndrome coronavirus (SARS-CoV). The conditions noted are these: read-out: IC50, inhibition of replication of SARS-CoV.
Data set [2] concerns Middle East respiratory syndrome coronavirus (MERS-CoV). The note with it: read-out: IC50, inhibition of replication of MERS-CoV.
The subject of another data set is SARS-CoV-2. The conditions noted are these: Vero cells; read-out: IC50, inhibition of replication of SARS-CoV-2.
The subject of data set [3] is Venezuelan equine encephalitis virus (VEEV) TC-83. The conditions noted are these: read-out: EC50, reduction of viral titers of VEEV TC-83.
For data set [4], the system named is remdesivir-resistant strains of the model CoV mouse hepatitis virus (MHV). The note with it: infected DBT cells.

SMILES strings stand for the structures. pEC50, pIC50: −log10 of the molar value.

With `O=c1nc(NO)ccn1[C@@H]1O[C@H](CO)[C@@H](O)[C@H]1O` [EIDD-1931, 1-(3,4-dihydroxy-5-(hydroxymethyl)tetrahydrofuran-2-yl)-4-(hydroxyamino)pyrimidin-2(1H)-one], the negative logarithm of the IC50 (pIC50) is 7.00 in data set [1], 6.82 in data set [2] and 6.52 with SARS-CoV-2. Besides, the negative-log EC50 (pEC50) in data set [3] was 6.37. Also, the “reduction of viral titers of remdesivir-resistant MHV” value in data set [4] is listed as “reduces viral titers”.
